Measurements taken from patent US6737383B1, “Herbicidal oxadiazolidines” (priority 1999, dated 2004).

Key:
[1] = system: velvetleaf; assay: Test B pre/postemergence velvetleaf; format: in vivo, Abutilon theophrasti
Description: (§1) Seeds of bedstraw (Galium aparine), blackgrass (Alopecurus myosuroides), surinam grass (Brachiaria decumbens), cocklebur (Xanthium strumarium), corn (Zea mays), crabgrass (Digitaria sanguinalis), giant foxtail (Setaria faberii), morningglory (Ipomoea hederacea), pigweed (Amaranthus retroflexus), rape (Brassica napus), soybean (Glycine max), sugar beet (Beta vulgaris), velvetleaf (Abutilon theophrasti), wheat (Triticum aestivum), wild oat (Avena fatua) and purple nutsedge (Cyperus rotundus) tubers were planted and treated preemnergence with test chemicals formulated in a non-phytotoxic solvent mixture which included a surfactant.
(§2) At the same time, these crop and weed species were also treated with postemergence applications of test chemicals formulated in the same manner. Plants ranged in height from 2 to 18 cm (1- to 4-leaf stage) for postemergence treatments. Plant species in the flood test consisted of rice (Oryza sativa), smallflower flatsedge (Cyperus difformis), duck salad (Heteranthera limosa) and bamyardgrass (Echinochloa crus-galli) grown to the 2-leaf stage for testing. Treated plants and controls were maintained in a greenhouse for twelve to sixteen days, after which all species were compared to controls and visually evaluated. Plant response ratings, summarized in Table B, are based on a scale of 0 to 10 where 0 is no effect and 10 is complete control. A dash (−) response means no test result.

[2] = system: sugar beet; assay: Test B pre/postemergence sugar beet; format: in vivo, Beta vulgaris
Description: as §1, §2

[3] = system: corn; assay: Test B pre/postemergence corn; format: in vivo, Zea mays
Description: as §1, §2

[4] = system: giant foxtail; assay: Test B pre/postemergence giant foxtail; format: in vivo, Setaria faberii
Description: as §1, §2

[5] = system: pigweed; assay: Test B pre/postemergence pigweed; format: in vivo, Amaranthus retroflexus
Description: as §1, §2

[6] = system: wild oat; assay: Test B pre/postemergence wild oat; format: in vivo, Avena fatua
Description: as §1, §2

[7] = system: wheat; assay: Test B pre/postemergence wheat; format: in vivo, Triticum aestivum
Description: as §1, §2

[8] = system: bedstraw; assay: Test B pre/postemergence bedstraw; format: in vivo, Galium aparine; conditions: Preemergence
Description: as §1, §2

[9] = system: purple nutsedge; assay: Test B pre/postemergence purple nutsedge; format: in vivo, Cyperus rotundus
Description: as §1, §2

[10] = system: morningglory; assay: Test B pre/postemergence morningglory; format: in vivo, Ipomoea hederacea
Description: as §1, §2

[11] = system: crabgrass; assay: Test B pre/postemergence crabgrass; format: in vivo, Digitaria sanguinalis
Description: as §1, §2

[12] = system: soybean; assay: Test B pre/postemergence soybean; format: in vivo, Glycine max
Description: as §1, §2

[13] = system: surinam grass; assay: Test B pre/postemergence surinam grass; format: in vivo, Brachiaria decumbens
Description: as §1, §2

[14] = system: rape; assay: Test B pre/postemergence rape; format: in vivo, Brassica napus
Description: as §1, §2

[15] = system: cocklebur; assay: Test B pre/postemergence cocklebur; format: in vivo, Xanthium strumarium
Description: as §1, §2

[16] = system: blackgrass; assay: Test B pre/postemergence blackgrass; format: in vivo, Alopecurus myosuroides
Description: as §1, §2

[17] = Postemergence, Rate 62 g/ha, scale of 0 to 10, 0 is no effect, 10 is complete control
[18] = Postemergence, Rate 125 g/ha, scale 0 to 10, 0 is no effect, 10 is complete control
[19] = Postemergence, Rate 500 g/ha, scale 0 to 10, 0 is no effect, 10 is complete control
[20] = Preemergence, Rate 62 g/ha, scale of 0 to 10 where 0 is no effect and 10 is complete control
[21] = Preemergence, Rate 125 g/ha, scale 0 to 10, 0 is no effect, 10 is complete control
[22] = Preemergence, Rate 500 g/ha, scale of 0 to 10 where 0 is no effect and 10 is complete control
[23] = Postemergence, Rate 250 g/ha, scale 0 to 10
[24] = Rate 62 g/ha, scale of 0 to 10 where 0 is no effect and 10 is complete control
[25] = Preemergence, Rate 250 g/ha, scale 0 to 10, 0 is no effect, 10 is complete control
[26] = Preemergence, Rate 250 g/ha, scale 0 to 10 (0 no effect, 10 complete control)

Compound: Cc1noc(C)c1Cn1c(=O)on(C(=O)N(c2ccc(F)cc2F)C(C)C)c1=O [Compound 510]
- Velvetleaf plant response rating [1, 17]: 4
- Velvetleaf plant response rating [1, 18]: 4
- Plant response rating, Velvetleaf [1, 19]: 7
- Plant response rating, Velvetleaf [1, 20]: 1
- Velvetleaf plant response rating [1, 21]: 2
- Velvetleaf plant response rating [1, 22]: 6
- Sugarbeets plant response rating [2, 17]: 2
- Sugarbeets plant response rating [2, 18]: 4
- Plant response rating, Sugarbeets [2, 19]: 8
- Plant response rating, Sugarbeets [2, 20]: 0
- Sugarbeets plant response rating [2, 21]: 0
- Sugarbeets plant response rating [2, 22]: 7
- Corn plant response rating [3, 17]: 0
- Corn plant response rating [3, 18]: 0
- Corn plant response rating [3, 23]: 0
- Plant response rating, Corn [3, 19]: 0
- Plant response rating, Corn [3, 20]: 0
- Corn plant response rating [3, 21]: 0
- Corn plant response rating [3, 22]: 5
- Giant foxtail plant response rating [4, 17]: 4
- Giant foxtail plant response rating [4, 18]: 6
- Plant response rating, Giant foxtail [4, 19]: 9
- Plant response rating, Giant foxtail [4, 20]: 9
- Giant foxtail plant response rating [4, 21]: 9
- Giant foxtail plant response rating [4, 22]: 10
- Redroot pigweed plant response rating [5, 17]: 7
- Redroot pigweed plant response rating [5, 18]: 7
- Plant response rating, Redroot pigweed [5, 20]: 7
- Redroot pigweed plant response rating [5, 21]: 9
- Redroot pigweed plant response rating [5, 22]: 10
- Wild oats plant response rating [6, 17]: 0
- Wild oats plant response rating [6, 18]: 0
- Plant response rating, Wild oats [6, 19]: 5
- Plant response rating, Wild oats [6, 20]: 4
- Wild oats plant response rating [6, 21]: 6
- Wild oats plant response rating [6, 22]: 7
- Wheat plant response rating [7, 17]: 0
- Wheat plant response rating [7, 18]: 0
- Plant response rating, Wheat [7, 19]: 3
- Plant response rating, Wheat [7, 20]: 0
- Wheat plant response rating [7, 21]: 0
- Wheat plant response rating [7, 22]: 0
- Plant response rating, Bedstraw [8, 24]: 0
- Bedstraw plant response rating ([8]; Rate 125 g/ha, scale 0 to 10, 0 is no effect, 10 is complete control): 0
- Bedstraw plant response rating ([8]; Rate 250 g/ha, scale 0 to 10, 0 is no effect, 10 is complete control): 0
- Bedstraw plant response rating ([8]; Rate 500 g/ha, scale 0 to 10, 0 is no effect, 10 is complete control): 4
- Nutsedge plant response rating [9, 18]: 0
- Plant response rating, Nutsedge [9, 19]: 0
- Plant response rating, Nutsedge [9, 20]: 0
- Nutsedge plant response rating [9, 21]: 0
- Nutsedge plant response rating [9, 22]: 0
- Morningglory plant response rating [10, 17]: 4
- Morningglory plant response rating [10, 18]: 5
- Plant response rating, Morningglory [10, 19]: 6
- Plant response rating, Morningglory [10, 20]: 0
- Morningglory plant response rating [10, 21]: 0
- Morningglory plant response rating [10, 22]: 5
- Crabgrass plant response rating [11, 17]: 3
- Crabgrass plant response rating [11, 18]: 8
- Crabgrass plant response rating [11, 23]: 8
- Plant response rating, Crabgrass [11, 19]: 9
- Plant response rating, Crabgrass [11, 20]: 5
- Crabgrass plant response rating [11, 21]: 9
- Crabgrass plant response rating [11, 22]: 9
- Soybean plant response rating [12, 17]: 4
- Soybean plant response rating [12, 18]: 7
- Plant response rating, Soybean [12, 19]: 8
- Plant response rating, Soybean [12, 20]: 0
- Soybean plant response rating [12, 21]: 0
- Soybean plant response rating [12, 22]: 0
- B. signalgrass plant response rating [13, 17]: 2
- B. signalgrass plant response rating [13, 18]: 4
- B. signalgrass plant response rating ([13]; Postemergence, Rate 250 g/ha, scale 0 to 10, 0 no effect, 10 complete control): 4
- Plant response rating, B. signalgrass [13, 19]: 6
- Plant response rating, B. signalgrass [13, 20]: 7
- B. signalgrass plant response rating [13, 21]: 7
- B. signalgrass plant response rating [13, 25]: 8
- B. signalgrass plant response rating ([13]; Preemergence, Rate 500 g/ha, scale 0 to 10, 0 is no effect, 10 is complete control): 9
- Rape plant response rating [14, 17]: 1
- Rape plant response rating [14, 18]: 4
- Plant response rating, Rape [14, 19]: 9
- Plant response rating, Rape [14, 20]: 2
- Rape plant response rating [14, 21]: 5
- Rape plant response rating [14, 22]: 9
- Cocklebur plant response rating [15, 17]: 3
- Cocklebur plant response rating [15, 18]: 3
- Cocklebur plant response rating [15, 23]: 4
- Plant response rating, Cocklebur [15, 19]: 4
- Plant response rating, Cocklebur [15, 20]: 0
- Cocklebur plant response rating [15, 21]: 0
- Cocklebur plant response rating [15, 22]: 0
- Blackgrass plant response rating [16, 17]: 5
- Blackgrass plant response rating [16, 18]: 5
- Blackgrass plant response rating [16, 23]: 5
- Plant response rating, Blackgrass [16, 19]: 6
- Plant response rating, Blackgrass [16, 20]: 6
- Blackgrass plant response rating [16, 21]: 6
- Blackgrass plant response rating [16, 25]: 7
- Blackgrass plant response rating [16, 22]: 8

Compound: CC(C)N(C(=O)n1oc(=O)n(C(C)C2CC2)c1=O)c1ccc(Cl)cc1 (stereo not shown) [Compound 700]
- Velvetleaf plant response rating [1, 20]: 0
- Sugarbeets plant response rating [2, 20]: 0
- Corn plant response rating [3, 20]: 0
- Plant response rating, Corn [3, 26]: 3
- Giant foxtail plant response rating [4, 20]: 10
- Redroot pigweed plant response rating [5, 20]: 0
- Wild oats plant response rating [6, 20]: 4
- Wheat plant response rating [7, 20]: 0
- Bedstraw plant response rating [8, 24]: 0
- Plant response rating, Bedstraw ([8]; Rate 250 g/ha, scale 0 to 10 (0 no effect, 10 complete control)): 0
- Plant response rating, Bedstraw ([8]; Rate 500 g/ha, scale of 0 to 10 where 0 is no effect and 10 is complete control): 8
- Morningglory plant response rating [10, 20]: 0
- Crabgrass plant response rating [11, 20]: 10
- Plant response rating, Crabgrass [11, 26]: 10
- Soybean plant response rating [12, 20]: 0
- B. signalgrass plant response rating [13, 20]: 4
- Plant response rating, B. signalgrass [13, 26]: 8
- Plant response rating, B. signalgrass [13, 22]: 10
- Rape plant response rating [14, 20]: 0
- Cocklebur plant response rating [15, 20]: 0
- Plant response rating, Cocklebur [15, 26]: 0
- Plant response rating, Cocklebur [15, 22]: 0
- Blackgrass plant response rating [16, 20]: 4
- Plant response rating, Blackgrass [16, 26]: 8
- Plant response rating, Blackgrass [16, 22]: 10
